From patent US6960559B1, “Neurite growth regulatory factors” (University of Zurich, priority 1988, dated 2005) come the findings set out here.

For orientation: IC50 means the concentration that gives 50% inhibition.

One experiment has as its system C6 glioblastoma cells. Nature of the experiment: cells. Type of experiment: cell-based, rat. The conditions noted are these: for IC50: 2 h. How it is done:
Rat C6 glioblastoma cells (Benda et al., 1968, Science 161:370-371) were cultured in Dulbecco's modified Eagle's medium (DMEM) supplemented with 10% fetal calf serum (FCS), usually to maximally 70-80% confluency (Paganetti et al., 1988, J. Cell Biol. 107:2281-2291). All cell culture media were routinely supplemented with penicillin and streptomycin. Cells were harvested by a short trypsin treatment (0.1% in Ca^2+/Mg^2+-free [CMF] PBS/EDTA solution for 90 seconds) followed by addition of DMEM/10% FCS and centrifugation (600×g, 6 min). The cell pellet was rinsed with 5 ml DMEM/10% FCS and centrifuged. For cell spreading assays, cells were resuspended at 10^6/ml in defined serum-free medium (MEMα) supplemented with 0.2 μg/ml insulin, 0.5 μg/ml transferrin and 0.12 μg/ml bovine serum albumin (BSA). Protease blockers or peptides were added directly to the cell suspension from 10×solutions 10 min before plating.
Spinal cord myelin from young adult Lewis rats was purified on a discontinuous sucrose gradient (Colman et al., 1982, J. Cell Biol. 95:598-608; Schwab and Caroni, 1988, J. Neurosci. 8:2381-2393) and stored in 100 mM sucrose, 25 mM TRIS/HCl pH 7.4 at −80° C. up to 6 months. The myelin suspension ([…]) was incubated for 30 min on poly-D-lysine-coated wells (PLYS-wells). Unbound myelin membranes were removed by rinsing twice with CMF-Hank's and once with MEMα. Myelin-coated wells were used immediately for the spreading assay by adding 9'000 C6 cells per cm^2. Experiments were scored as described (Paganetti et al., 1988, J. Cell Biol. 107:2281-2291).

The subject of experiment [1] is C6 plasma membrane associated metalloendoprotease. The experiment is described as follows: Enzyme assay: cbz-FAF[125I]Y-NH2 degradation by C6 plasma membranes with protease blockers. Type of experiment: biochemical, rat. How it is done:
For most experiments, 70-80% confluent cell layers (1 cm^2 wells, 100 μl MEMα) or 2-5 μg C6 plasma membrane (100 μl MEMα) were used. […] If indicated, cell layers or plasma membrane suspensions were preincubated for 30 min with protease blockers or peptides. NEM or iodacetamide incubations of plasma membranes were performed at pH 8.5. The incubation was stopped by loading a 10 μl aliquot of the incubation medium on a thin layer chromatography plate (10 cm height, Kieselgel 60 F254, MERCK, Germany) and air dried. […] Plates were then air dried and exposed on Kodak X-OMAT films (NY, USA) with an intensifying screen. To identify the degradation products on thin-layer chromatography, we run reference peptides under the same conditions.
For the quantification of the activity, the reaction was stopped by addition of an equal volume of chloroform. […] Activity is expressed as % radioactivity contained in the aqueous phase. 100% is the sum of the radioactivity of both phases.

The mark [2] stands for this setting: C6 cell spreading on CNS myelin, read-out: IC50 on CNS myelin.

Structures are written as SMILES. Like-named read-outs stand apart in the source and are kept apart here. Where a SMILES comes first, the peptide text is derived from it. The star is where a group is joined. Cbz = O=C(OCc1ccccc1)*

Compound `CC(C)C[C@H](NC(=O)CNC(=O)OCc1ccccc1)C(=O)N[C@@H](Cc1ccccc1)C(N)=O` [cbz-GLF-NH2] (Cbz-Gly-Leu-Phe-NH2) showed an IC50 with C6 glioblastoma cells of 5 µM.

`C[C@H](NC(=O)[C@H](Cc1ccccc1)NC(=O)OCc1ccccc1)C(=O)N[C@@H](Cc1ccccc1)C(=O)N[C@@H](Cc1ccc(O)cc1)C(N)=O` [cbz-FAFY-NH2, carbobenzoxy-Phe-Ala-Phe-Tyr-amide] (Cbz-FAFY-NH2) yielded an IC50 in the experiment on C6 glioblastoma cells of 3 µM. In the experiment on C6 glioblastoma cells (Section 11), the “Effect on C6 cell spreading on CNS myelin, in words” value (“Effect … on CNS myelin, in words” for short) is “clearly impaired C6 cell spreading on CNS myelin” and the “Effect on C6 cell spreading on PLYS-coated wells, in words” value was “had no effect on PLYS-coated wells”.

`C[C@H](CS)C(=O)N1CCC[C@H]1C(=O)O` [Captopril]: the “Effect on cbz-FAF[^125I]Y-NH2 degradation by C6 plasma membranes, in words” value (shortened to “Effect … by C6 plasma membranes, in words”) in experiment [1] was “had no effect”.

In turn, `O=C(CNC(=O)OCc1ccccc1)N[C@@H](Cc1ccccc1)C(=O)N[C@@H](Cc1ccccc1)C(=O)O` [cbz-GFF] (Cbz-Gly-Phe-Phe-OH; C-terminus assumed) had an IC50 in the experiment with C6 glioblastoma cells of 300 µM.

For the compound `CCN1C(=O)C=CC1=O` [N-ethylmaleimide], the “Effect … by C6 plasma membranes, in words” value in experiment [1] is “had no effect”.

Turning to `C[C@H](NC(=O)OCc1ccccc1)C(=O)N[C@@H](Cc1ccccc1)C(N)=O` [cbz-AF-NH2, carbobenzoxy-alanine-phenylalanine-amide], the IC50 in the experiment on C6 glioblastoma cells (setting [2]) stood at 600 µM.

`COC(=O)[C@H](Cc1ccccc1)NC(=O)[C@H](Cc1ccccc1)NC(=O)CNC(=O)OCc1ccccc1` [cbz-GFF-OCH3] (Cbz-Gly-Phe-Phe-OMe): in the experiment on C6 glioblastoma cells, the IC50 was found to be 5 µM. Further, in the experiment on C6 glioblastoma cells (Section 11), the “Effect … on CNS myelin, in words” value is reported as “strong inhibition of cell spreading”.

Take `C[C@H](NC(=O)OCc1ccccc1)C(=O)N[C@@H](Cc1ccccc1)C(=O)N[C@@H](Cc1ccc(O)cc1)C(N)=O` [cbz-AFY-NH2]: in the experiment with C6 glioblastoma cells (Section 11), the “Effect … on CNS myelin, in words” value is listed as “strong inhibition of cell spreading”.

For `C[C@H](NC(=O)[C@H](Cc1ccccc1)NC(=O)OCc1ccccc1)C(N)=O` [cbz-FA-NH2], in the experiment with C6 glioblastoma cells (setting [2]), the IC50 was 600 µM.

Take `C[C@H](NC(=O)[C@@H](N)Cc1ccccc1)C(=O)N[C@@H](Cc1ccccc1)C(=O)N[C@@H](Cc1ccc(O)cc1)C(N)=O` [FAFY-NH2] (H-FAFY-NH2; N-terminus assumed): the IC50 in the experiment with C6 glioblastoma cells (setting [2]) came to 300 µM.

In the case of `NC(=O)CI` [iodacetamide], in experiment [1], the “Effect … by C6 plasma membranes, in words” value is “had no effect”.
